Our source for the relative viability values is the supplement of paper PMC10307832.

Holding throughout (assay): relative viability (nuclei count vs DMSO), 5 days (fraction); higher = more cells survive
Compound in assay [1]: CN1CCC(CNc2ccc3ncc(-c4cccc(OC(F)(F)F)c4)n3n2)CC1 [SGI-1776] + COc1cccc2cc(-c3nc([C@H]4CC[C@H](C(=O)O)CC4)n4ncnc(N)c34)[nH]c12 [OSI-027] (partner 0.5 µM)
Summed up:
(§1)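 Lung cancer cell lines in 1536-well plates were dosed by pin tool the day after seeding, either with one drug alone or with a fixed anchor-drug dose plus five library-drug doses (not always all listed) in √10 steps. After 5 days, cells were fixed and their nuclei stained in one step (final 0.05% Triton X-100, 1% formaldehyde, 1 ug/ml Hoechst), then counted on 4× images. Relative viability is the nuclei count in treated wells divided by that in vehicle wells. Values are medians of duplicate plates.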

Compound in assay [2]: C1COCCN1C2=NC(=NC3=C2OC4=C3C=CC=N4)C5=CC(=CC=C5)NC(=O)C6=CN=C(C=C6)N + C[C@]1(O)C[C@@H](c2nc(-c3ccc4ccc(-c5ccccc5)nc4c3)c3c(N)nccn32)C1 [Linsitinib] (partner 1 µM)
Put shortly: as §1

Compound in assay [3]: C1COCCN1C2=NC(=NC3=C2OC4=C3C=CC=N4)C5=CC(=CC=C5)NC(=O)C6=CN=C(C=C6)N + Cc1cc(Nc2cc(N3CCN(C)CC3)nc(Sc3ccc(NC(=O)C4CC4)cc3)n2)n[nH]1 [Tozasertib] (partner 0.1 µM)
Summed up:
as §1

Compound in assay [4]: CN1CCC(CNc2ccc3ncc(-c4cccc(OC(F)(F)F)c4)n3n2)CC1 [SGI-1776] + Cc1nc(Nc2ncc(C(=O)Nc3c(C)cccc3Cl)s2)cc(N2CCN(CCO)CC2)n1 [Dasatinib] (partner 0.075 µM)
Put shortly:
as §1

With UMC-11, the relative viability in assay [1] (first compound 0.08 µM) stood at 0.493; in assay [1] (first compound 0.8 µM), 0.466; in assay [1] (first compound 2.53 µM), 0.396; in assay [1] (first compound 8 µM), 0.278; in assay [2] (first compound 0.02 µM), 0.966; in assay [2] (first compound 0.06325 µM), 1.04. Moreover, the relative viability was 1.11 in assay [2] (first compound 0.2 µM); 1.34 in assay [2] (first compound 0.6325 µM); 0.666 in assay [2] (first compound 2 µM); 0.205 in assay [3] (first compound 0.02 µM); 0.188 in assay [3] (first compound 0.06325 µM); 0.193 in assay [3] (first compound 0.2 µM). Moreover, the relative viability in assay [3] (first compound 0.6325 µM) was determined as 0.182; in assay [3] (first compound 2 µM), 0.177; in assay [4] (first compound 0.08 µM) it was 0.449; in assay [4] (first compound 0.8 µM), 0.455; in assay [4] (first compound 2.53 µM) it was 0.615; in assay [4] (first compound 8 µM) it was 0.392.
